Test systems include A498 renal; CAKI-1 renal; HT29 colon; BT-549 breast; 786-0 renal; OVCAR-5 ovarian; SK-OV-3 ovarian; NCI-H226 lung; OVCAR-8 ovarian; NCI-H23 lung; SK-MEL-2 melanoma; NCI-H460 lung; RPMI-8226 leukemia; SF-268 CNS; MCF7 breast; HCT-116 colon; MDA-N; RXF 393 renal; UO-31 renal; COLO 205 colon.
Common to all, as to experiment: growth of human tumour cells (NCI), 48 h

From PubChem BioAssay (NCI) come the findings set out here.

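These data come from cells grown in 96-well plates and exposed to compound for 48 hours at five concentrations. TGI marks complete inhibition of growth.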 Where only a bound is given, the exact number is not on record here.

In the case of `OC12CC3c4ccccc4NC3C3Oc4cccc5c4C31CCN(CC1CC1)C2C5` (stereo not given), the TGI in the experiment with A498 renal was 32.2 µM; with CAKI-1 renal it was 32.4 µM; with HT29 colon, 34.2 µM; with BT-549 breast, 34.7 µM; in the experiment with 786-0 renal it was 32.2 µM; in the experiment on OVCAR-5 ovarian, 46.3 µM. Besides, the TGI in the experiment with SK-OV-3 ovarian was 34.6 µM; with NCI-H226 lung, 74.9 µM; in the experiment with OVCAR-8 ovarian it was 32.3 µM; in the experiment with NCI-H23 lung, 30.6 µM; with SK-MEL-2 melanoma, 35 µM; in the experiment on NCI-H460 lung, 32.4 µM. The TGI in the experiment with RPMI-8226 leukemia is 48.2 µM; in the experiment on SF-268 CNS it was 41.1 µM; in the experiment on MCF7 breast, 32.8 µM; with HCT-116 colon it was 33.5 µM; in the experiment on MDA-N, 35.1 µM; with RXF 393 renal it was 27.7 µM. Besides, the TGI is 30.4 µM in the experiment on UO-31 renal and 39.7 µM in the experiment on COLO 205 colon.

Consider `N#CC(c1ccccc1)N(CCc1ccccc1)C(=O)c1ccccc1` (stereo not given), for which the TGI in the experiment with A498 renal is > 100 µM; with CAKI-1 renal it was > 100 µM; in the experiment with HT29 colon, > 100 µM; in the experiment on BT-549 breast, > 100 µM; with 786-0 renal it was > 91.4 µM; in the experiment on OVCAR-5 ovarian, > 100 µM. The TGI in the experiment on SK-OV-3 ovarian, in the experiment with NCI-H226 lung, in the experiment with OVCAR-8 ovarian, with NCI-H23 lung, with SK-MEL-2 melanoma and with NCI-H460 lung was > 100 µM each time. The TGI was > 100 µM with RPMI-8226 leukemia; > 86.5 µM in the experiment with SF-268 CNS; > 100 µM with MCF7 breast; > 100 µM in the experiment with HCT-116 colon; > 100 µM in the experiment with MDA-N; > 100 µM with RXF 393 renal. In addition, the TGI with UO-31 renal and with COLO 205 colon was > 100 µM in each case.

On to `CC(O)CCNC(=O)Nc1c(C(F)(F)F)cc(-c2ccccc2)[nH]c1=O` (stereo not given), for which the TGI in the experiment on A498 renal, in the experiment on CAKI-1 renal, in the experiment with HT29 colon, in the experiment on BT-549 breast, in the experiment with 786-0 renal and in the experiment on OVCAR-5 ovarian was > 100 µM throughout. Besides, the TGI in the experiment with SK-OV-3 ovarian, in the experiment on NCI-H226 lung, with OVCAR-8 ovarian, in the experiment on NCI-H23 lung, in the experiment on SK-MEL-2 melanoma and in the experiment with NCI-H460 lung was > 100 µM in each case. In addition, the TGI in the experiment on RPMI-8226 leukemia, with SF-268 CNS, with MCF7 breast, in the experiment with HCT-116 colon, in the experiment on MDA-N and in the experiment on RXF 393 renal was > 100 µM each time. The TGI in the experiment on UO-31 renal and in the experiment on COLO 205 colon was > 100 µM in each case.

Take `CN(CCCCN1CCCC1)CCCCN(C)C(=O)Cc1ccc(Cl)c(Cl)c1`: the TGI in the experiment on A498 renal turned out to be 32.4 µM; with CAKI-1 renal it was 39.2 µM; with HT29 colon, 15.4 µM; in the experiment with BT-549 breast, 36.7 µM; in the experiment with 786-0 renal, 25.7 µM; with OVCAR-5 ovarian, 41.2 µM. Besides, the TGI in the experiment on SK-OV-3 ovarian was determined as 47.2 µM; in the experiment on NCI-H226 lung, 41.8 µM; with OVCAR-8 ovarian, 64.9 µM; in the experiment with NCI-H23 lung it was 37.3 µM; with SK-MEL-2 melanoma it was 19.7 µM; in the experiment with NCI-H460 lung, 30.6 µM. The TGI with RPMI-8226 leukemia is 23.9 µM; in the experiment on SF-268 CNS, 39.8 µM; in the experiment on MCF7 breast, 28.3 µM; in the experiment with HCT-116 colon it was 29.3 µM; in the experiment with MDA-N, 12.2 µM; in the experiment on RXF 393 renal it was 25.9 µM. The TGI in the experiment with UO-31 renal stood at 3.31 µM; with COLO 205 colon, 27.4 µM.

On to `COc1ccc(/C=N/NC(=O)c2ccccc2Nc2ccccc2C(=O)N/N=C/c2ccc(OC)cc2)cc1`, for which the TGI in the experiment on A498 renal, in the experiment with CAKI-1 renal, in the experiment with HT29 colon, with BT-549 breast, in the experiment with 786-0 renal and in the experiment with OVCAR-5 ovarian was > 100 µM in each case. Moreover, the TGI in the experiment with SK-OV-3 ovarian, in the experiment on NCI-H226 lung, with OVCAR-8 ovarian, with NCI-H23 lung, in the experiment with SK-MEL-2 melanoma and in the experiment on NCI-H460 lung was > 100 µM in each case. In addition, the TGI with RPMI-8226 leukemia, with SF-268 CNS, in the experiment with MCF7 breast, with HCT-116 colon, in the experiment on MDA-N and in the experiment with RXF 393 renal was > 100 µM each time. The TGI in the experiment on UO-31 renal and in the experiment on COLO 205 colon was > 100 µM in each case.

In the case of `CC(=O)Nc1ccc(-c2nc3ccccc3s2)cc1Cl`, the TGI in the experiment on A498 renal, in the experiment on CAKI-1 renal, with HT29 colon, in the experiment on BT-549 breast, in the experiment with 786-0 renal and with OVCAR-5 ovarian was > 100 µM each time. Further, the TGI in the experiment on SK-OV-3 ovarian, in the experiment on NCI-H226 lung, in the experiment on OVCAR-8 ovarian, in the experiment on NCI-H23 lung, in the experiment with SK-MEL-2 melanoma and with NCI-H460 lung was > 100 µM in each case. The TGI in the experiment with RPMI-8226 leukemia is > 100 µM; in the experiment on SF-268 CNS, > 100 µM; in the experiment on MCF7 breast, > 100 µM; with HCT-116 colon, > 100 µM; in the experiment with MDA-N, > 100 µM; in the experiment on RXF 393 renal, 90.3 µM. In addition, the TGI with UO-31 renal and in the experiment with COLO 205 colon was > 100 µM each time.

Regarding `CCCCC1C(=O)N(c2ccc(S(=O)(=O)Nc3ccccn3)cc2)N(c2ccc(O)c(C(=O)O)c2)C1=O` (stereo not given), the TGI in the experiment on A498 renal, with CAKI-1 renal, in the experiment with HT29 colon, in the experiment with BT-549 breast, in the experiment on 786-0 renal and in the experiment on OVCAR-5 ovarian was > 100 µM each time. Besides, the TGI with SK-OV-3 ovarian, with NCI-H226 lung, in the experiment on OVCAR-8 ovarian, with NCI-H23 lung, in the experiment with SK-MEL-2 melanoma and in the experiment on NCI-H460 lung was > 100 µM each time. The TGI with RPMI-8226 leukemia, in the experiment with SF-268 CNS, with MCF7 breast, in the experiment with HCT-116 colon, in the experiment on MDA-N and in the experiment with RXF 393 renal was > 100 µM throughout. The TGI in the experiment on UO-31 renal and with COLO 205 colon was > 100 µM in each case.

On to `c1ccc(CN2CCCN3CCN(CCCN(Cc4ccccc4)CC3)CC2)cc1`, for which the TGI in the experiment on A498 renal, in the experiment on CAKI-1 renal, with HT29 colon, in the experiment with BT-549 breast, in the experiment with 786-0 renal and with OVCAR-5 ovarian was > 100 µM throughout. Also, the TGI is > 100 µM with SK-OV-3 ovarian; > 100 µM in the experiment with NCI-H226 lung; > 100 µM in the experiment on OVCAR-8 ovarian; > 100 µM in the experiment with NCI-H23 lung; 49.9 µM in the experiment with SK-MEL-2 melanoma; > 100 µM in the experiment with NCI-H460 lung. In addition, the TGI in the experiment with RPMI-8226 leukemia, in the experiment with SF-268 CNS, in the experiment with MCF7 breast, in the experiment with HCT-116 colon, in the experiment with MDA-N and in the experiment with RXF 393 renal was > 100 µM throughout. Besides, the values for the TGI with UO-31 renal and in the experiment on COLO 205 colon were > 100 µM and 57.8 µM, respectively.

With `CCOC(=O)c1ccc(NC(=O)O/N=C(/Cl)C(C)C)cc1`, the TGI with A498 renal was determined as 28.4 µM; in the experiment on CAKI-1 renal, 8.87 µM; with HT29 colon, 48 µM; with BT-549 breast, 32.7 µM; in the experiment with 786-0 renal, 16.5 µM; in the experiment with OVCAR-5 ovarian, 32.9 µM. Further, the TGI in the experiment on SK-OV-3 ovarian amounted to 33.4 µM; in the experiment with NCI-H226 lung it was 50.2 µM; in the experiment with OVCAR-8 ovarian, 27.9 µM; in the experiment on NCI-H23 lung, 47.7 µM; in the experiment with SK-MEL-2 melanoma, 29.3 µM; in the experiment with NCI-H460 lung, 38.3 µM. Also, the TGI in the experiment with RPMI-8226 leukemia came out at 24.8 µM; in the experiment on SF-268 CNS, 34.8 µM; in the experiment on MCF7 breast, 21.3 µM; with HCT-116 colon, 22.4 µM; in the experiment on MDA-N it was 32.4 µM; with RXF 393 renal, 30.6 µM. The TGI in the experiment on UO-31 renal was 31.9 µM; in the experiment on COLO 205 colon it was 5.77 µM.

In the case of `CC(C)(Cl)C(Br)CCC(CBr)=C(Cl)CCl` (mixture of isomers), the TGI was > 5.56 µM with A498 renal; 5.67 µM in the experiment with CAKI-1 renal; 3.77 µM in the experiment on HT29 colon; 4.14 µM in the experiment on BT-549 breast; 3.04 µM with 786-0 renal; > 8.21 µM in the experiment with OVCAR-5 ovarian. Moreover, the TGI is > 8.72 µM in the experiment with SK-OV-3 ovarian; > 2.46 µM in the experiment with NCI-H226 lung; 3.14 µM in the experiment on OVCAR-8 ovarian; 5.42 µM in the experiment on NCI-H23 lung; 4.41 µM with SK-MEL-2 melanoma; > 10 µM in the experiment with NCI-H460 lung. The TGI with RPMI-8226 leukemia amounted to 4.39 µM; in the experiment on SF-268 CNS, 5.67 µM; in the experiment with MCF7 breast, 4.79 µM; with HCT-116 colon, 3.63 µM; with MDA-N it was 3.74 µM; in the experiment with RXF 393 renal, 4.97 µM. Also, the TGI in the experiment on UO-31 renal stood at 3.96 µM; in the experiment with COLO 205 colon it was 1.11 µM.
